Laboratory results reported in US11396499B2, “Lysosomal acid lipase assay” (University of Washington, priority 2018, dated 2022).
“And” between values parts separate entries of the source, which are not always exact repeats. Identical values can stand only once.

Columns and labels:
[1] = biological target: T1, lysosomal acid lipase (LAL) (Homo sapiens, UniProt P38571); test: LAL assay development: replacement of cardiolipin by phospholipids and of Triton X-100 by detergent; format: biochemical; details: for change of LAL activity over that measured with cardiolipin: phospholipid tested individually at 0.1 mmol/L as replacement for cardiolipin
T1 construct: from tissue; host or cells: dried blood spots (DBS) from healthy adults, healthy children and LAL-deficient patients
T1 sequence (P38571 77-399): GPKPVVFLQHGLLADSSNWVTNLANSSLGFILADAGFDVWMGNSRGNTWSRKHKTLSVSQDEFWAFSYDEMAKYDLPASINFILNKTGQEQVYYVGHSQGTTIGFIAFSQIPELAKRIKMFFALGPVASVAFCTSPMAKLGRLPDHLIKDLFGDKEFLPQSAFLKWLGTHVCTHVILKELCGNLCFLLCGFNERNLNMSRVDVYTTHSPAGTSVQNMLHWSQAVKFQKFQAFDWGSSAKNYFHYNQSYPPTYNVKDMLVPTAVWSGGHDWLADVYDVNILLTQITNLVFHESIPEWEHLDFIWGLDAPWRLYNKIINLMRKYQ
Experimental: A variety of phospholipids were evaluated as replacements for cardiolipin, which was used in the original LAL assay described by Hamilton et al. (Clin Chim Acta 2012; 413:1207-10). The following phospholipids were tested individually at 0.1 mmol/L: 1,2-dioleoyl-phosphatidylethanolamine, 1,2-dioleoyl-phosphatidylmethanol, 1,2-dioleoyl-phosphatidylcholine, 1,2-dioleoyl-phosphatidylserine, brain phosphatidylethanolamine, 1,2-heptadecyl-phosphatidylcholine, and 1,2-lauryl-phosphatidylcholine.
The original LAL assay described by Hamilton et al. (Clin Chim Acta 2012; 413:1207-10) used Triton X-100 as the detergent, which was replaced this with sodium taurodeoxycholate because this detergent largely remains in the aqueous phase following liquid-liquid extraction with ethyl acetate (thus minimizing injection of large amounts of detergent onto the UPLC column). […] Thus, 2.5 mmol/L was chosen for all subsequent studies.

[2] = system: lysosomal acid lipase (LAL); test: UPLC-MS/MS LAL assay in dried blood spots (DBS) with substrate P-PMHC; format: biochemical, human
Experimental: Assay mixture was prepared by combining 9 volumes of 0.1 mol/L sodium acetate buffer (made by adding reagent grade NaOH to 0.1 mol/L reagent-grade acetic acid in water), pH 4.5, containing 2.5 mmol/L sodium taurodeoxycholate hydrate (Sigma, 287245) with 1 volume of 0.5% (w/v) bovine heart cardiolipin in ethanol (Sigma, C1649) containing 3 mmol/L substrate palmitoyl 4-propyl-8-methyl-7-hydroxycoumarin (P-PMHC) and 50 μmol/L carbon-13-labeled 4-propyl-8-methyl-7-hydroxycoumarin (internal standard). The latter was prepared by mixing solid substrate P-PMHC with internal standard solution in absolute ethanol, removing solvent in a centrifugal concentrator under vacuum (or with a jet of nitrogen), and then mixing with commercial cardiolipin/ethanol solution. This ethanol stock could be stored at −20° C. for several months (avoid>2-3 freeze-thaw cycles), and the aqueous buffer could be stored at 4° C. for several months. This was based on no change in assay results when new and stored solutions were used. Assay mixture was made fresh before each use.
To a 3-mm punch from a DBS in a 1.5-mL polypropylene Eppendorf tube was added 200 μL of purified water (Milli-Q, EMD Millipore). The tubes were shaken on an orbital platform shaker for 1 h at ambient temperature. The tube of DBS extract was mixed briefly on a vortex-type mixer, and a 10 μL aliquot was added to the well of a polypropylene, deep-well, 96-well plate (Costar, 3959). Assay mixture (30 μL, ambient temperature) was added to each well. The plate was centrifuged at 3000 g for 5 min at ambient temperature to ensure that all liquid was at the well bottom. The plate was sealed with a film cover (Advantage 96-well round clear Silicone/PTFE cap mat 962611). The plate was shaken at 37° C. in an incubator with orbital mixing at 400 rpm for 3 h. The reactions were quenched by addition of 80 μL of purified water (Milli-Q, EMD Millipore) followed by 400 μL of HPLC-grade ethyl acetate. The well contents were mixed by pipetting up and down approximately 10 times. The plate was centrifuged at 3000 g for 5 min at ambient temperature, and then 120 μL of the upper ethyl acetate layer was transferred to a shallow-well, 96-well polypropylene plate (Greigner, 651201). Solvent was removed at ambient temperature with a jet of nitrogen. To each well was added 200 μL of water/methanol (1:1, Fisher Optima Grade), and samples were mixed by pipetting up and down a few times. The plate was wrapped with aluminum foil and placed in the autosampler chamber at 8° C. in preparation for LC-MS/MS analysis.
Liquid chromatography was carried out using a Waters Acquity binary solvent pump system with a CSH, C18, 1.7-μm, 2.1×50-mm column (Waters, 186005296) and a CSH, C18, 1.7-μm guard column (Vanguard, 186005303). The solvent program was 99% A (70:30, water/acetonitrile, 0.1% formic acid, Fisher Optima grade)/1% B (50:50, acetonitrile/isopropanol, 0.1% formic acid) to 30% A/70% B over 1 min, then jump to 100% B and hold for 0.5 min, then to 99% A over 0.5 min (flow rate 0.8 mL/min). The total run time was 2.5 min. Mass spectrometry was carried out with a Waters Xevo TQ tandem-quadrupole instrument.

[3] = biological target: T1, lysosomal acid lipase (LAL); test: Testing the library of palmitoyl-4MU analogs as LAL substrates with DBS, with and without Lalistat-2, UPLC-MS/MS; format: biochemical; details: for overall ranking in the library (activity and LAL specificity): library of 25 compounds
Experimental: The library of palmitoyl-4MU analogs was tested as LAL substrates as follows. Assay cocktail was a solution of 10:1 buffer to substrate stock, each warmed to 37° C. The substrate stock contained 3.7 mM substrate and 0.5% cardiolipin in ethanol. The buffer contained 0.15 M sodium acetate, pH 4.0, and 2.5 mM sodium taurodeoxycholate. Rehydrated blood mixture (40 mL) was combined with 10 mL of H2O or 30 mM Lalistat-2 in an Eppendorf 1.5 mL polypropylene tube and pre-incubated for 15 min at 37° C. with orbital shaking at 250 rpm. Assay cocktail (100 or 150 mL) was added and samples were incubated for 3 hr at 37° C. with orbital shaking at 250 rpm. Assay was quenched by first flash freezing to −80° C. followed by subsequent addition of 400 mL of ethyl acetate and thawing. Samples were then vortexed and centrifuged at 2700×g for 5 min. Top ethyl acetate layer (200 mL) was transferred to an autosampler plate and blown dry under nitrogen gas then resuspended in 1:1 H2O:methanol solution, and […] per well injected for analysis by UPLC-MS/MS. The LC-MS/MS data was converted into mmole of product by using an external standard of 2.5 nmole (the individual corresponding coumarins) spiked into 40 mL rehydrated blood in a 1.5 mL Eppendorf polypropylene tube incubated separately from the assay cocktail, which were quenched immediately following incubation. Additional controls included a Lalistat-2 inhibited rehydrated DBS solution incubated separately from the assay cocktail then combined and immediately quenched as a blank. Unique duplicate spiked controls and blank controls were used for each coumarin analog.

[4] = biological target: T1, lysosomal acid lipase (LAL); test: Previous fluorometric LAL assay (Hamilton et al.) with palmitoyl-4MU with and without Lalistat-2 in DBS; format: biochemical; details: same DBS extract, substrate palmitoyl-4MU, 10 μmol/L Lalistat-2
Source text: LAL is detected in leukocytes or fibroblasts using radiometric, immunologic, or fluorescence assays (The metabolic and molecular bases of inherited disease. 8th Ed. New York (NY): McGraw-Hill; 2001. p. 3827-3387). Hamilton and colleagues recently developed a fluorometric assay to detect LAL in dried blood spots (DBS) (Hamilton et al., Clin Chim Acta 2012; 413:1207-10). The assay is based on the release of 4-methylumbelliferone from its ester with palmitic acid. However, the substrate is not specific for LAL, and the method requires two assays performed in parallel, the first in the presence of a LAL-specific covalent inactivator Lalistat-2. LAL activity is calculated from the difference in these 2 assays.
A concentration of P-PMHC in the mixture of 3 mmol/L was settled on based on a combination of high LAL activity and minimal background. The original assay described by Hamilton et al. (Clin Chim Acta 2012; 413:1207-10) used 40 μL of an aqueous extract of a 3-mm DBS added to 160 μL of assay mixture. To keep the solvent volumes for the liquid-liquid extraction to a minimum, thus avoiding long times for solvent removal, 10 μL of an aqueous extract of a 3-mm DBS punch was added to 30 μL of assay mixture.

CCCCCCCC/C=C\CCCCCCCC(=O)OC[C@H](COP(=O)(O)OCCN)OC(=O)CCCCCCC/C=C\CCCCCCCC [1,2-dioleoyl-phosphatidylethanolamine]
change of LAL activity over that measured with cardiolipin [1]: None of these phospholipids led to any substantial increase in LAL

CCCCCCCCCCCCCCCC(=O)Oc1ccc2c(CCC)cc(=O)oc2c1C [Compound 1, 4-propyl-8-methyl-7-palmitoyloxycoumarin]
Activity without Lalistat-2 ([2]; LAL activity toward substrate P-PMHC, tandem mass spectrometry, DBS of Adult 1 (r9) / Adult 2 (r10), triplicate, blank corrected): 519 µmol/h/L and 539 µmol/h/L and 473 µmol/h/L and 554 µmol/h/L and 582 µmol/h/L
specific activity ([2]; final assay conditions, 3-mm punch of a DBS from a healthy adult, UPLC-MS/MS): 874 µmol/h/L
specificity of the substrate for LAL in DBS ([2]; from Lalistat-2 inhibition and LAL-deficient patients, listed as P-PMHC): highly specific for LAL in DBS
LAL activity in DBS of LAL-deficient patients ([2]; six LAL-deficient patients, UPLC-MS/MS, no Lalistat-2): close to zero
substrate activity with DBS as the source of LAL compared to palmitoyl-4MU ([3]; 3.7 mM substrate stock, 3 hr 37° C.): more active than palmitoyl-4MU
overall ranking in the library (activity and LAL specificity) [3]: highest combination of total lipase activity and LAL-specificity
overall ranking in the library (activity and LAL specificity) ([3]; listed as P-PMHC): best combination of high specific activity on LAL and high specificity for LAL

C[C@H](CCC(=O)NCCS(=O)(=O)[O-])[C@H]1CC[C@H]2[C@@H]3CC[C@@H]4C[C@H](O)CC[C@]4(C)[C@H]3C[C@H](O)[C@]12C.[Na+] [sodium taurodeoxycholate]
decrease of LAL activity on replacement of Triton X-100 ([1]; 2.5 mmol/L sodium taurodeoxycholate): 20%

CCCCCCCCCCCCCCCCC(=O)OC[C@H](COP(=O)([O-])OCC[N+](C)(C)C)OC(=O)CCCCCCCCCCCCCCCC [1,2-heptadecyl-phosphatidylcholine]
change of LAL activity over that measured with cardiolipin [1]: None of these phospholipids led to any substantial increase in LAL

CCCCCCCC/C=C\CCCCCCCC(=O)OCC(COP(=O)(O)OC)OC(=O)CCCCCCC/C=C\CCCCCCCC (centres unmarked) [1,2-dioleoyl-phosphatidylmethanol]
change of LAL activity over that measured with cardiolipin [1]: None of these phospholipids led to any substantial increase in LAL

CCCCCCCC/C=C\CCCCCCCC(=O)OC[C@H](COP(=O)([O-])OCC[N+](C)(C)C)OC(=O)CCCCCCC/C=C\CCCCCCCC [1,2-dioleoyl-phosphatidylcholine]
change of LAL activity over that measured with cardiolipin [1]: None of these phospholipids led to any substantial increase in LAL

CCCCCCCCCCCC(=O)OC[C@H](COP(=O)([O-])OCC[N+](C)(C)C)OC(=O)CCCCCCCCCCC [1,2-lauryl-phosphatidylcholine]
change of LAL activity over that measured with cardiolipin [1]: None of these phospholipids led to any substantial increase in LAL

O=C(Oc1nsnc1N1CCCCC1)N1CCCCC1 [Lalistat-2, reference compound]
inhibition of the activity toward P-PMHC ([2]; DBS extracts from two healthy persons preincubated with 10 μmol/L Lalistat-2): 98%
inhibition of the activity toward P-PMHC ([2]; DBS extracts preincubated with 100 μmol/L Lalistat-2): 99%
total lipase activity blocked [4]: 78%

CCCCCCCC/C=C\CCCCCCCC(=O)OC[C@H](COP(=O)(O)OC[C@H](N)C(=O)O)OC(=O)CCCCCCC/C=C\CCCCCCCC [1,2-dioleoyl-phosphatidylserine]
change of LAL activity over that measured with cardiolipin [1]: None of these phospholipids led to any substantial increase in LAL
